Data from US8815841B2, “1,4-Oxazepines as BACE1 and/or BACE2 inhibitors” (Hoffmann-La Roche Inc., priority 2011, dated 2014).
Structures can show the parent of a compound that is named as a salt.

Legend:
[1] = test system: Aβ40 in Human HEK293 cells stably transfected with human APP wt gene (APP695); experiment: Cellular Aβ-lowering assay; type: cell-based; conditions: HEK293 cells expressing human APP695, Aβ40 in culture supernatant by ELISA after 18-20 hrs; read-out: Cellular assay Abeta40 IC50
Description: Cellular Aβ-lowering Assay:
Human HEK293 cells which are stably transfected with a vector expressing a cDNA of the human APP wt gene (APP695) were used to assess the potency of the compounds in a cellular assay. The cells were seeded in 96-well microtiter plates in cell culture medium (Iscove, plus 10% (v/v) fetal bovine serum, glutamine, penicillin/streptomycin) to about 80% confluence and the compounds were added at a 10× concentration in 1/10 volume of medium without FCS containing 8% DMSO (final concentration of DMSO was kept at 0.8% v/v). After 18-20 hrs incubation at 37° C. and 5% CO2 in a humidified incubator the culture supernatant was harvested for the determination of Aβ40 concentrations. 96 well ELISA plates (e.g., Nunc MaxiSorb) were coated with monoclonal antibody which specifically recognize the C-terminal end of Aβ40 (Brockhaus et al., NeuroReport 9, 1481-1486; 1998). After blocking of non-specific binding sites with e.g. 1% BSA and washing, the culture supernatants were added in suitable dilutions together with a horseradish peroxidase-coupled Aβ detection antibody (e.g., antibody 4G8, Senetek, Maryland Heights, Mo.) and incubated for 5 to 7 hrs. Subsequently the wells of the microtiter plate were washed extensively with Tris-buffered saline containing 0.05% Tween 20 and the assay was developed with tetramethylbenzidine/H2O2 in citric acid buffer. After stopping the reaction with one volume 1 NH2SO4 the reaction was measured in an ELISA reader at 450 nm wavelength. The concentrations of Aβ in the culture supernatants were calculated from a standard curve obtained with known amounts of pure Aβ peptide.

[2] = biological target: T1, endogenous cellular BACE2 (human TMEM27 cleavage) in the Ins 1e rat cell line (Rattus norvegicus, UniProt Q6IE75); experiment: Assay for BACE inhibition by measuring cellular TMEM27 cleavage; type: cell-based; conditions: INS-TMEM27 cells, shed TMEM27 in culture medium by ELISA
T1 construct: endogenous cellular BACE2 in the Ins 1e rat cell line; endogenous in cells; host or cells: INS-TMEM27 (INS1e-derived rat cell line with doxycycline-inducible full-length human TMEM27)
T1 sequence (Q6IE75 63-514): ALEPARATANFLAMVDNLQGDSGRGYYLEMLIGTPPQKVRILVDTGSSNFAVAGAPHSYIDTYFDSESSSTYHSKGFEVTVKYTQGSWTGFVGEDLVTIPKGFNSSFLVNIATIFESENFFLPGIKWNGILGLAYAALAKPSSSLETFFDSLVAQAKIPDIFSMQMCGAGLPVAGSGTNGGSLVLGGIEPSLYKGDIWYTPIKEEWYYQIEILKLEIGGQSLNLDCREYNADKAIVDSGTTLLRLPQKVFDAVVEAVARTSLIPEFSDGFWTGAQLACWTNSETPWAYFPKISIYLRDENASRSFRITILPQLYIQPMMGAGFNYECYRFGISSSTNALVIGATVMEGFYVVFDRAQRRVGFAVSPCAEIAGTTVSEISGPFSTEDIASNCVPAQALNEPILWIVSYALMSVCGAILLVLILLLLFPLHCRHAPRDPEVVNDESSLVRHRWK
Excerpt: Assay for BACE Inhibition by Measuring Cellular TMEM27 Cleavage:
The assay uses the principle of inhibition of human TMEM27 cleavage by endogenous cellular BACE2 in the Ins 1e rat cell line and shedding from the cell surface into the culture medium, followed by detection in an ELISA assay. Inhibition of BACE2 prevents the cleavage and shedding in a dose-dependent manner.
The stable cell line “INS-TMEM27” represents an INSle-derived cell line with inducible expression (using the TetOn system) of full-length hTMEM27 in a doxycycline-dependent manner. The cells are cultured throughout the experiment in RPMI1640+Glutamax (Invitrogen) Penicillin/Streptomycin, 10% Fetal bovine serum, […], […], 100 micrograms/ml G418 and 100 microgram/ml hygromycin and are grown inadherent culture at 37° C. in a standard CO2 cell culture incubator.
INS-TMEM27 cells are seeded in 96-well plates. After 2 days in culture, BACE2 inhibitor is added in a range of concentrations as required by the assay and after a further two hours, doxycycline is added to a final concentration of 500 ng/ml. The cells are incubated for a further 46 hours and the supernatant harvested for detection of shed TMEM27.
An ELISA assay (using a pair of mouse anti-human-TMEM27 antibodies, raised against the extracellular domain of TMEM27) is used for detection of TMEM27 in the culture medium. An EC50 for BACE2 inhibition is calculated using the ELISA readout for each inhibitor concentration with standard curve-fitting software such as XLFit for the Excel spreadsheet program.

SMILES | IC50 [2] | IC50 [1]
C[C@]1(c2cc(NC(=O)c3ccc(-c4nccs4)cn3)ccc2F)N=C(N)COCC1(F)F [Example 3, (R)—N-(3-(3-Amino-6,6-difluoro-5-methyl-2,5,6,7-tetrahydro-1,4-oxazepin-5-yl)-4-fluorophenyl)-5-(thiazol-2-yl)picolinamide formate] | 5730 nM | 10 nM
COCC#Cc1ccc(C(=O)Nc2ccc(F)c([C@@]3(C)N=C(N)COCC3(F)F)c2)nc1 [Example 8, (R)—N-(3-(3-Amino-6,6-difluoro-5-methyl-2,5,6,7-tetrahydro-1,4-oxazepin-5-yl)-4-fluorophenyl)-5-(3-methoxyprop-1-ynyl)picolinamide formate] | 837 nM | 70 nM
C[C@]1(c2cc(NCC3CC3)ccc2F)N=C(N)COC[C@@H]1F [Example 9, (5R,6R)-5-(5-(Cyclopropylmethylamino)-2-fluorophenyl)-6-fluoro-5-methyl-2,5,6,7-tetrahydro-1,4-oxazepin-3-amine] | 22.6 nM | 28 nM

Now from value to molecule, other results behind:

IC50 [2] | SMILES | IC50 [1]
14600 nM | C[C@]1(c2cc(NC(=O)c3ncc(C(N)=O)cc3F)ccc2F)N=C(N)COCC1(F)F [Example 1, (R)—N2-(3-(3-Amino-6,6-difluoro-5-methyl-2,5,6,7-tetrahydro-1,4-oxazepin-5-yl)-4-fluorophenyl)-3-fluoropyridine-2,5-dicarboxamide formate] | 350 nM
662 nM | CC[C@]1(c2cc(NC(=O)c3ncoc3C3CC3)ccc2F)N=C(N)COCC1(F)F [Example 4, (R)—N-(3-(3-Amino-5-ethyl-6,6-difluoro-2,5,6,7-tetrahydro-1,4-oxazepin-5-yl)-4-fluorophenyl)-5-cyclopropyloxazole-4-carboxamide] | 2400 nM
103 nM | CSc1cnc(C(=O)Nc2ccc(F)c([C@@]3(C)N=C(N)COCC3(F)F)c2)cn1 [Example 5, (R)—N-(3-(3-Amino-6,6-difluoro-5-methyl-2,5,6,7-tetrahydro-1,4-oxazepin-5-yl)-4-fluorophenyl)-5-(methylthio)pyrazine-2-carboxamide formate] | 10 nM
311 nM | C[C@]1(c2cc(NC(=O)c3ccc(C#CC4CC4)cn3)ccc2F)N=C(N)COCC1(F)F [Example 6, (R)—N-(3-(3-Amino-6,6-difluoro-5-methyl-2,5,6,7-tetrahydro-1,4-oxazepin-5-yl)-4-fluorophenyl)-5-(cyclopropylethynyl)picolinamide formate] | 20 nM
123 nM | C[C@]1(c2cc(NC(=O)c3ccc(C4CC4)cn3)ccc2F)N=C(N)COCC1(F)F [Example 7, (R)—N-(3-(3-Amino-6,6-difluoro-5-methyl-2,5,6,7-tetrahydro-1,4-oxazepin-5-yl)-4-fluorophenyl)-5-cyclopropylpicolinamide formate] | 25 nM
